Measurements reported in PubChem BioAssay AID192 (DTP/NCI, 2004).
Several values for one entry are separate records, joined by “and”; a condition that tells them apart may be missing. Equal values may be shown once. Inconclusive results and toxic doses are left out. Square brackets hold non-standard residues; d marks the D form. Peptide text beside a SMILES is read from it. ξ: configuration not given here. Ac5c = NC1(C(=O)O)CCCC1; ξS = NC(CO)C(=O)O

Test system: BDF1 mice, B16 melanoma ip, median survival T/C
Assay: NCI In Vivo Anticancer Drug Screen. Data for tumor model B16 Melanoma (intraperitoneal) in B6D2F1 (BDF1) mice
Conditions: endpoint: median survival time, higher = longer survival
Procedure, shortened: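 Each result divides a survival or tumor-size measurement in the compound-treated group by the same measurement in the vehicle group.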

[1] = dose: 100.0 mg/kg/injection, schedule: Q01DX009 (ip), vehicle: saline with Tween-80
[2] = dose: 200.0 mg/kg/injection, schedule: Q01DX009 (ip), vehicle: saline with Tween-80
[3] = dose: 400.0 mg/kg/injection, schedule: Q01DX009 (ip), vehicle: saline with Tween-80
[4] = dose: 25.0 mg/kg/injection, schedule: Q01DX009 (ip), vehicle: Klucel (hydroxypropylcellulose) (HPC)
[5] = dose: 50.0 mg/kg/injection, schedule: Q01DX009 (ip), vehicle: Klucel (hydroxypropylcellulose) (HPC)
[6] = dose: 100.0 mg/kg/injection, schedule: Q01DX009 (ip), vehicle: Klucel (hydroxypropylcellulose) (HPC)
[7] = dose: 200.0 mg/kg/injection, schedule: Q01DX009 (ip), vehicle: Klucel (hydroxypropylcellulose) (HPC)
[8] = dose: 400.0 mg/kg/injection, schedule: Q01DX009 (ip), vehicle: Klucel (hydroxypropylcellulose) (HPC)
[9] = dose: 100.0 mg/kg/injection, schedule: Q04DX003 (ip), vehicle: saline with Tween-80
[10] = dose: 200.0 mg/kg/injection, schedule: Q04DX003 (ip), vehicle: saline with Tween-80
[11] = dose: 400.0 mg/kg/injection, schedule: Q04DX003 (ip), vehicle: saline with Tween-80
[12] = dose: 50.0 mg/kg/injection, schedule: Q01DX009 (ip), vehicle: saline with Tween-80
[13] = dose: 12.5 mg/kg/injection, schedule: Q01DX009 (ip), vehicle: saline
[14] = dose: 12.5 mg/kg/injection, schedule: Q01DX009 (ip), vehicle: Klucel (hydroxypropylcellulose) (HPC)

## Cc1cc(=O)[nH]c(N/N=C/c2ccc(N(C)C)cc2)n1
[1]
  T/C: 100 % of control
[2]
  T/C: 95 % of control
[3]
  T/C: 97 % of control

## CCC(=O)O[C@H]1CC[C@H]2[C@@H]3CCC4=CC(=O)CC[C@]4(C)[C@H]3CC[C@]12C
[4]
  T/C: 96 % of control
dose: 40.0 mg/kg/injection, schedule: Q02DX009 (ip), vehicle: Klucel (hydroxypropylcellulose) (HPC)
  T/C: 100 % of control
[5]
  T/C: 90 % of control
dose: 80.0 mg/kg/injection, schedule: Q02DX009 (ip), vehicle: Klucel (hydroxypropylcellulose) (HPC)
  T/C: 105 % of control
[6]
  T/C: 95 % of control
[7]
  T/C: 91 % of control
dose: 320.0 mg/kg/injection, schedule: Q02DX009 (ip), vehicle: Klucel (hydroxypropylcellulose) (HPC)
  T/C: 105 % of control
[8]
  T/C: 94 % of control

## NC(=O)c1nc2n(c1N)CCC2
[9]
  T/C: 102 % of control
[10]
  T/C: 105 % of control
[11]
  T/C: 94 % of control

## N=C1SCc2ccc3ccccc3c21
[12]
  T/C: 99 % of control
[1]
  T/C: 97 % of control
[2]
  T/C: 91 % of control
[3]
  T/C: 89 % of control

## COc1ccc(Cl)cc1NC(=O)c1ccc(Cl)cc1Cl
[9]
  T/C: 100 % of control
[10]
  T/C: 97 % of control
[11]
  T/C: 95 % of control

## Cc1ccc(C(=O)NC2C(=O)NC(C(C)C)C(=O)N3CCCC3C(=O)N(C)CC(=O)N(C)C(C(C)C)C(=O)OC2C)c2c1Oc1c(c(C(=O)NC3C(=O)NC(C(C)C)C(=O)N4CCCC4C(=O)N(C)CC(=O)N(C)C(C(C)C)C(=O)OC3C)c3nc(CF)c(=O)oc3c1C)N2 (stereo unspecified)
dose: 0.13 mg/kg/injection, schedule: Q04DX003 (ip), vehicle: saline + alcohol
  T/C: 154 % of control
dose: 0.25 mg/kg/injection, schedule: Q04DX003 (ip), vehicle: saline + alcohol
  T/C: 164 % of control
dose: 31.25 micrograms/kg/injection, schedule: Q04DX003 (ip), vehicle: water
  T/C: 112 % of control
dose: 125.0 micrograms/kg/injection, schedule: Q04DX003 (ip), vehicle: water
  T/C: 180 % of control
dose: 250.0 micrograms/kg/injection, schedule: Q04DX003 (ip), vehicle: water
  T/C: 170 % of control
dose: 500.0 micrograms/kg/injection, schedule: Q04DX003 (ip), vehicle: water
  T/C: 175 % of control

## CC(O)C(=O)[O][Hg][c]1ccccc1 (stereo unspecified)
dose: 2.5 mg/kg/injection, schedule: Q01DX009 (ip), vehicle: saline with Tween-80
  T/C: 102 % of control
dose: 5.0 mg/kg/injection, schedule: Q01DX009 (ip), vehicle: saline with Tween-80
  T/C: 102 % of control

## Nc1c2c(nc3ccccc13)CCCC2
dose: 0.19 mg/kg/injection, schedule: Q01DX009 (ip), vehicle: saline
  T/C: 95 % of control
dose: 0.39 mg/kg/injection, schedule: Q01DX009 (ip), vehicle: saline
  T/C: 95 % of control
dose: 0.78 mg/kg/injection, schedule: Q01DX009 (ip), vehicle: saline
  T/C: 100 % of control
dose: 1.56 mg/kg/injection, schedule: Q01DX009 (ip), vehicle: saline
  T/C: 95 % of control
dose: 3.12 mg/kg/injection, schedule: Q01DX009 (ip), vehicle: saline
  T/C: 102 % of control
dose: 6.25 mg/kg/injection, schedule: Q01DX009 (ip), vehicle: saline
  T/C: 91 % of control
[13]
  T/C: 100 % of control

## Cc1ccccc1-n1c(C)nc2ccccc2c1=O
[14]
  T/C: 92 % of control and 108 % of control
[4]
  T/C: 92 % of control
[5]
  T/C: 88 % of control and 90 % of control
[6]
  T/C: 88 % of control
[7]
  T/C: 90 % of control

## CCOC1=CCN(S(=O)(=O)c2ccc(C)cc2)c2ccc(OC)cc21
dose: 100.0 mg/kg/injection, schedule: Q04DX003 (ip), vehicle: Klucel (hydroxypropylcellulose) (HPC)
  T/C: 102 % of control
dose: 200.0 mg/kg/injection, schedule: Q04DX003 (ip), vehicle: Klucel (hydroxypropylcellulose) (HPC)
  T/C: 104 % of control
dose: 400.0 mg/kg/injection, schedule: Q04DX003 (ip), vehicle: Klucel (hydroxypropylcellulose) (HPC)
  T/C: 94 % of control

## Nc1ccc2nc3ccc(N)cc3[n+](-c3ccccc3)c2c1
dose: 3.75 mg/kg/injection, schedule: Q01DX009 (ip), vehicle: saline with Tween-80
  T/C: 97 % of control
dose: 7.5 mg/kg/injection, schedule: Q01DX009 (ip), vehicle: saline with Tween-80
  T/C: 102 % of control
dose: 10.0 mg/kg/injection, schedule: Q04DX003 (ip), vehicle: saline with Tween-80
  T/C: 100 % of control
dose: 15.0 mg/kg/injection, schedule: Q01DX009 (ip), vehicle: saline with Tween-80
  T/C: 102 % of control
dose: 20.0 mg/kg/injection, schedule: Q04DX003 (ip), vehicle: saline with Tween-80
  T/C: 107 % of control
dose: 30.0 mg/kg/injection, schedule: Q01DX009 (ip), vehicle: saline with Tween-80
  T/C: 118 % of control
dose: 40.0 mg/kg/injection, schedule: Q04DX003 (ip), vehicle: saline with Tween-80
  T/C: 100 % of control

## C=CCn1c(=S)[nH]c2ccccc2c1=O
[12]
  T/C: 96 % of control
[1]
  T/C: 96 % of control
[9]
  T/C: 105 % of control
[2]
  T/C: 93 % of control
[10]
  T/C: 94 % of control
[11]
  T/C: 92 % of control

## COC1CC(OC2CCC3(C)C(CCC45OC46CCC(C4=CC(=O)OC4)C6(C)CCC35)C2)OC(C)C1O (stereo unspecified)
dose: 1.2 mg/kg/injection, schedule: Q01DX009 (ip), vehicle: saline
  T/C: 98 % of control
dose: 1.8 mg/kg/injection, schedule: Q01DX009 (ip), vehicle: saline
  T/C: 101 % of control
dose: 2.75 mg/kg/injection, schedule: Q01DX009 (ip), vehicle: saline
  T/C: 87 % of control
[13]
  T/C: 96 % of control
dose: 25.0 mg/kg/injection, schedule: Q01DX009 (ip), vehicle: saline
  T/C: 89 % of control

## CC(C)(C)NC/C(=C\c1ccccc1)C(=O)c1ccccc1
dose: 6.25 mg/kg/injection, schedule: Q04DX003 (ip), vehicle: saline with Tween-80
  T/C: 100 % of control
[14]
  T/C: 96 % of control
dose: 12.5 mg/kg/injection, schedule: Q04DX003 (ip), vehicle: saline with Tween-80
  T/C: 98 % of control
[4]
  T/C: 96 % of control
dose: 25.0 mg/kg/injection, schedule: Q04DX003 (ip), vehicle: saline with Tween-80
  T/C: 97 % of control and 102 % of control

## NC(CO)C(=O)NC1(C(=O)O)CCCC1 (stereo unspecified) (H-[ξS]-[Ac5c]-OH)
[9]
  T/C: 123 % of control
dose: 133.0 mg/kg/injection, schedule: Q04DX003 (ip), vehicle: saline with Tween-80
  T/C: 122 % of control
dose: 300.0 mg/kg/injection, schedule: Q04DX003 (ip), vehicle: saline with Tween-80
  T/C: 117 % of control
[11]
  T/C: 100 % of control

## CCOC(=O)C(C(=O)OCC)N(CC)CC
[6]
  T/C: 93 % of control
[7]
  T/C: 90 % of control
[8]
  T/C: 100 % of control

## COc1ccc(NC2=C(C)C(=O)C3=C(C2=O)[C@H](COC(N)=O)[C@]2(OC)[C@@H]4N[C@@H]4CN32)cc1OC
dose: 3.0 mg/kg/injection, schedule: Q04DX003 (ip), vehicle: water
  T/C: 223 % of control
dose: 6.0 mg/kg/injection, schedule: Q04DX003 (ip), vehicle: water
  T/C: 312 % of control

## C/C=C/C(=O)OCC1CCN(C)C1 (stereo unspecified)
dose: 50.0 mg/kg/injection, schedule: Q01DX009 (ip), vehicle: water
  T/C: 98 % of control
dose: 100.0 mg/kg/injection, schedule: Q01DX009 (ip), vehicle: water
  T/C: 107 % of control
dose: 200.0 mg/kg/injection, schedule: Q01DX009 (ip), vehicle: water
  T/C: 90 % of control

## O=C1C=C(Nc2ccccc2)c2ccccc2C1=O
[14]
  T/C: 93 % of control
[4]
  T/C: 105 % of control
[5]
  T/C: 88 % of control
[6]
  T/C: 87 % of control

## COc1cc2c(=O)oc3c(OC)c(O)cc4c(=O)oc(c1OC)c2c34
dose: 4.0 mg/kg/injection, schedule: Q01DX009 (ip), vehicle: saline with Tween-80
  T/C: 100 % of control
dose: 8.0 mg/kg/injection, schedule: Q01DX009 (ip), vehicle: saline with Tween-80
  T/C: 94 % of control
dose: 16.0 mg/kg/injection, schedule: Q01DX009 (ip), vehicle: saline with Tween-80
  T/C: 96 % of control
dose: 32.0 mg/kg/injection, schedule: Q01DX009 (ip), vehicle: saline with Tween-80
  T/C: 90 % of control

## CC1(C)N=C(N)N=C(N)N1c1cccc(CC(=O)Nc2ccc(S(=O)(=O)F)cc2)c1
[4]
  T/C: 103 % of control
[5]
  T/C: 102 % of control
[6]
  T/C: 109 % of control
dose: 150.0 mg/kg/injection, schedule: Q01DX009 (ip), vehicle: Klucel (hydroxypropylcellulose) (HPC)
  T/C: 109 % of control
